The text below walks through data of patent publication US20250145608A1, “KRAS DEGRADING COMPOUNDS COMPRISING ANNULATED 2-AMINO-3-CYANO THIOPHENES” (Boehringer Ingelheim Int'l GmbH Corp., priority 2021, published 2025).

Read-outs that look alike come from different tables or passages of the source.

Common to all, as to type: cell-based
Test [1] addresses T1, KRAS4B G12V (Homo sapiens, UniProt P01116, G12V).
T1 construct: HiBit; expressed in transfected cells; host or cells: GP5d cells (ECACC 95090715), stably transduced with lentivirus, CMV promoter
Put plainly: HiBit KRAS4B mutant spectrum degradation assay, KRAS4B G12V in GP5d cells (18 h). To be noted: KRAS mutation G12V. The source says:
(§1) The therapeutically relevant mutant KRAS constructs (WT, G12C, G12D, G12V, G13D) were obtained by site directed mutagenesis using a KRAS4B WT cDNA construct as a template. GP5d cells (ECACC Cat. No. 95090715) were transduced with lentiviral vectors expressing mutant KRAS4B cDNA under control of a CMV promoter. Stably transduced cells were selected using a neomycin selectable marker encoded on the construct.
(§2) To assess PROTAC-mediated degradation of various KRAS mutants, GP5d cells stably transduced with KRAS4B constructs as described above were seeded at 25000 cells per well in 100 μL Dulbecco's Modified Eagle medium (Sigma cat. no. D6429) supplemented with 10% fetal calf serum into white bottom opaque 96 well plates (Perkin Elmer cat no. 5680). Plates were incubated at 37° C., 5% CO2 in a humidified incubator over night to allow the cells to adhere. […] Plates were further incubated at 37° C. for 18 hours. Following incubation, 100 μL per well Promega Nano-Glo HiBit lytic detection reagent mix (Promega Nano-Glo HiBit Lytic Detection System #N3050), prepared according to the manufacturer's instructions in the kit, were added. To allow for adequate cell lysis, plates were incubated on an orbital shaker for 15 min and further incubated 30 min at room temperature. Upon completion of cell lysis, luminescence was measured using an Envision plate reader using the Ultrasensitive Luminescence Protocol for 96 well plates. Luminescence levels were normalized by the values obtained with DMSO-treated samples and plotted as percent of DMSO control. DC50 values were computed using a four parametric logistic model and are reported in nM in Table 65 for representative example (Ex.) compounds of the invention. Dmax values represent the maximal extent of degradation observed and is stated as percent of control (% Ctrl.) treatments in Table 66 for representative example (Ex.) compounds of the invention.
(In general: With HiBiT, luminescence reflects the tagged protein that the partner subunit can reach.)

In test [2] the target is T2, KRAS4B G12D (Homo sapiens, UniProt P01116, G12D).
T2 construct: HiBit; expressed in transfected cells; host or cells: GP5d cells (ECACC 95090715), stably transduced with lentivirus, CMV promoter
Put plainly: HiBit KRAS4B mutant spectrum degradation assay, KRAS4B G12D in GP5d cells (18 h). Conditions: KRAS mutation G12D.
Description: as §1, §2

The test system of test [3] is GP5d cells. The test can be described thus: GP5d cell proliferation assay (colorectal cancer, G12D), 5 days. Conditions: Homo sapiens, 120 h. The procedure: GP5d Cell Proliferation Assay (Colorectal Cancer, G12D)
(§3) GP5d cells (ECACC 95090715) are dispensed into white bottom opaque 96 well plates at a density of 5000 cells per well in 100 μL DMEM (BioWhittaker, Cat #BE12-605F) supplemented with 10% FCS. […] Compounds (10 mM stock in DMSO) are added at logarithmic dose series using the HP Digital Dispenser D300 (Tecan), normalizing for added DMSO. For the TO time point measurement, untreated cells are analysed at the time of compound addition. Plates are incubated for 5 days, and cell viability is measured using CellTiter-Glo luminescent cell viability reagent (Promega, Cat. No G7570). Viability (stated as percent of control) is defined as relative luminescence units RLU of each well divided by the RLU of cells in DMSO controls. IC50 values were computed from relative viability values using a four parametric logistic model.

The target in test [4] is T3, KRAS(G12D) (Homo sapiens, UniProt P01116, G12D).
T3 construct: introduced immediately downstream of the initiating Methionine codon of the endogenous KRAS locus; host or cells: GP5d-HiBit-KRAS(G12D), a CRISPR knock-in at the endogenous locus
Put plainly: HiBit degradation assay in GP5d-HiBit-KRAS(G12D) cells (18 h; DC50, Dmax). Put shortly:
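GP5d cells carry an endogenous N-terminal HiBit tag on KRAS(G12D), knocked in by CRISPR. They were seeded overnight in DMEM/10% FCS, exposed to compound for 18 h at 37° C, then lysed for HiBit luminescence, normalised to DMSO. DC50 comes from a four-parameter logistic fit; Dmax is maximal degradation as % of control.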

Test [5] deals with T4, KRAS4B G13D (Homo sapiens, UniProt P01116, G13D).
T4 construct: HiBit; expressed in transfected cells; host or cells: GP5d cells (ECACC 95090715), stably transduced with lentivirus, CMV promoter
The test can be described thus: HiBit KRAS4B mutant spectrum degradation assay, KRAS4B G13D in GP5d cells (18 h). Conditions: KRAS mutation G13D.
Description: as §1, §2

In test [6] the test system is SW620 cells. The test can be described thus: SW620 cell proliferation assay (colorectal cancer, G12V), 5 days. Conditions: Homo sapiens, SW-620, 120 h. The procedure: SW620 Cell Proliferation Assay (Colorectal Cancer, G12V)
as §3, with “SW620” for “GP5d”, “(ATCC CCL-227)” for “(ECACC 95090715)”, “plates (Perkin Elmer cat no. 5680)” for “plates”, “2000” for “5000”

Test [7] has as its system NCI-H358 cells. Put plainly: NCI-H358 CTG proliferation assay (120 h) (NSCLC, G12C). To be noted: Homo sapiens. Put shortly: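 IC50 values derive from four-parameter nonlinear regression of CellTiter-Glo viability (RLU relative to DMSO wells) after 120 h of exposure. Cells were plated in RPMI-1640 + 10% FCS at 2000 per well (assay 1) or 200 per well (assay 2). Untreated cells were measured at compound addition as T0.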

The target of test [8] is T5, KRAS4B WT (Homo sapiens, UniProt P01116).
T5 construct: HiBit; expressed in transfected cells; host or cells: GP5d cells (ECACC 95090715), stably transduced with lentivirus, CMV promoter
The test can be described thus: HiBit KRAS4B mutant spectrum degradation assay, KRAS4B WT in GP5d cells (18 h). To be noted: KRAS mutation G12WT.
Description: as §1, §2

T5 sequence (P01116 1-188 isoform P01116-2): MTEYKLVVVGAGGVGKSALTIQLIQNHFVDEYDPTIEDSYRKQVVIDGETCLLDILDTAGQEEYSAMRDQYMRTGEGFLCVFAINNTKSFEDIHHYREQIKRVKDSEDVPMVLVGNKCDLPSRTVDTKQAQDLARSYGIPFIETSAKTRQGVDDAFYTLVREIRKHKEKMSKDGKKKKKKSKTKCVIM
T4 sequence (P01116 1-188 isoform P01116-2 G13D): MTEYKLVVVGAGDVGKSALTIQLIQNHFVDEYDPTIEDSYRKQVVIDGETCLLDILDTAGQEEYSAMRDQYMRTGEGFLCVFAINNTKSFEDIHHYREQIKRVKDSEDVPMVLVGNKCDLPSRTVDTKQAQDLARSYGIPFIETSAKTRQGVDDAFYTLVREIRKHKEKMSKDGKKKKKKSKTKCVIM
T3 sequence (P01116 1-188 isoform P01116-2 G12D): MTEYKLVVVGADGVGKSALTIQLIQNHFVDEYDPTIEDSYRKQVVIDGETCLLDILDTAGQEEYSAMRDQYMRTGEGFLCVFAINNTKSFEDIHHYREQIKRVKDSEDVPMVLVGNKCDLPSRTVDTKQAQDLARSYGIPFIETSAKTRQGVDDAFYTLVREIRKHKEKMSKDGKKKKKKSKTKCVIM
T2 sequence (P01116 1-188 isoform P01116-2 G12D): as above
T1 sequence (P01116 1-188 isoform P01116-2 G12V): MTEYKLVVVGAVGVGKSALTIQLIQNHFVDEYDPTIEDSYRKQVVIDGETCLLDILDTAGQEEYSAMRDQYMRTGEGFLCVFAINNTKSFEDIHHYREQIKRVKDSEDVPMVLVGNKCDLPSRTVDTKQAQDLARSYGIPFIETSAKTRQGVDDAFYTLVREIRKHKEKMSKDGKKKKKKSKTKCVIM

As a reminder, the DC50 is the concentration giving 50% degradation. A lower DC50 goes with degradation at low concentration. One may read the IC50 as the concentration that inhibits the measured activity by half. `Cc1ncsc1-c1ccc(CNC(=O)[C@@H]2C[C@@H](O)CN2C(=O)[C@@H](NC(=O)CCCCCN2CCCN(c3nccc(-c4noc([C@@]5(C)CCCc6sc(N)c(C#N)c65)n4)n3)[C@@H](C)C2)C(C)(C)C)cc1` [I-47]: the DC50 in test [1] is 0.0988 µM; in test [2], 0.048 µM; in test [4], 0.0477 µM; in test [5] it was 0.0449 µM; in test [8], 0.0362 µM. The “Dmax at 18 h” value in test [1] is 90 % Ctrl; in test [2] it was 94 % Ctrl; in test [5], 90 % Ctrl; in test [8], 95.4 % Ctrl. Also, the IC50 in test [3] is 0.141 µM; in test [6], 0.28 µM; in test [7] (assay 1, read-out: H358 (assay 1) IC50) it was 2.5 µM; in test [7] (assay 2, read-out: H358 (assay 2) IC50), 0.168 µM. Besides, the “Dmax 18 h” value in test [4] amounted to 94 % Ctrl.
